Experimental data reported in patent US20060235225A1, “Crystals of 5-[2-amino-4-(2-furyl) pyrimidin-5-yl]-1-methylpyridin-2(1H)-one and processes for preparing the same” (Eisai Co., Ltd., priority 2005, published 2006).

Legend:
[1] = Stability against light (impurity content by HPLC after storage); type: physicochemical
Description: The respective crystals obtained in Example 1 and Comparative Example 2 (the crystal form A and the crystal form B) were stored for 1, 3 and 6 months under conditions of 25° C./1000 Lx (apparatus for light stability test; Nagano Science Co. Ltd) and 25° C./dark (control), and impurity contents were measured by HPLC method to investigate stability against exposure to light for the respective crystals. The conditions for HPLC method are shown below.
(Calculation Method of Impurity Content)
Individual impurity content (%)=(Peak area of individual impurity)/(total of all peak areas)×100
Peaks with impurity contents of 0.05% or greater were recorded as impurity peaks, and their total was recorded as the impurity content of the crystals. Impurity content (%)=Total of individual impurity contents (%)

[2] = Variable-temperature powder X-ray diffraction and DSC (change of crystal form on heating); type: physicochemical
Description: The measuring conditions were the same as for the powder X-ray diffraction pattern measurement described above, except for the measuring temperature.
DSC analysis was conducted under the following conditions, using approximately 3 mg each of the crystals obtained in Example 1 and Comparative Example 2 (the crystal form A and the crystal form B). The DSC patterns of the respective crystals are shown in FIG. 6 and FIG. 7 (magnification of 40-230° C.), and the endothermic peaks and exothermic peaks are shown in Table 2. • Measuring apparatus: DSC822^e by Mettler Toledo • Sample pan material: aluminum • Nitrogen gas flow (40 mL/min) • Start temperature: 25° C. • End temperature: 260° C.
Temperature elevating rate: 5° C./min

Impurity content ([1]; 25° C./1000Lx, storage period 1 month, listed as A) [%] | Impurity content ([1]; 25° C./1000Lx, storage period 3 months, listed as A) [%] | Impurity content ([1]; 25° C./1000Lx, storage period 6 months, listed as A) [%] | Impurity content ([1]; 25° C./dark (control), storage period 1 month, listed as A) [%] | Impurity content ([1]; 25° C./dark (control), storage period 3 months, listed as A) [%] | Impurity content ([1]; 25° C./dark (control), storage period 6 months, listed as A) [%] | Impurity content ([1]; Initial, before storage, HPLC, listed as A) [%] | Impurity content ([1]; 25° C./1000Lx, storage period 1 month, listed as B) [%] | Impurity content ([1]; 25° C./1000Lx, storage period 3 months, listed as B) [%] | Impurity content ([1]; 25° C./1000Lx, storage period 6 months, listed as B) [%] | Impurity content ([1]; 25° C./dark (control), storage period 1 month, listed as B) [%] | Impurity content ([1]; 25° C./dark (control), storage period 3 months, listed as B) [%] | Impurity content ([1]; 25° C./dark (control), storage period 6 months, listed as B) [%] | Impurity content ([1]; Initial, before storage, HPLC, listed as B) [%] | Temperature of transformation to another crystal form (B′) ([2]; heating 30° C. to 260° C.) | Temperature of transformation to the crystal form A ([2]; heating 30° C. to 260° C.) | Structure (SMILES) | Stability against exposure to light (comparison of crystal forms) ([1]; 25° C./1000 Lx, up to 6 months) | Change in crystal form by heating ([2]; sample temperature 30° C. to 260° C.)
0.10 | 0.07 | 0.08 | 0.14 | 0.12 | 0.12 | 0.06 |  |  |  |  |  |  |  |  |  | Cn1cc(-c2cnc(N)nc2-c2ccco2)ccc1=O [Crystal form A, 5-[2-amino-4-(2-furyl)pyrimidin-5-yl]-1-methylpyridin-2(1H)-one] | more stable against exposure to light than the crystal form B | undergoes no change in crystal form by heating
 |  |  |  |  |  |  | 0.48 | 0.52 | 0.81 | 0.28 | 0.25 | 0.23 | 0.34 | about 90 °C | about 170 °C | Cn1cc(-c2cnc(N)nc2-c2ccco2)ccc1=O [Crystal form B, 5-[2-amino-4-(2-furyl)pyrimidin-5-yl]-1-methylpyridin-2(1H)-one] |  | 
